Test in all cases: relative viability (nuclei count vs DMSO), 5 days (fraction); higher = more cells survive
Compound in the experiment “QS11 + Foretinib”: C1CC2=C(C1)C=C(C=C2)OC3=NC(=C4C(=N3)N(C=N4)CC5=CC=C(C=C5)C6=CC=CC=C6)N[C@@H](CC7=CC=CC=C7)CO [QS11] + COc1cc2c(Oc3ccc(NC(=O)C4(C(=O)Nc5ccc(F)cc5)CC4)cc3F)ccnc2cc1OCCCN1CCOCC1 [Foretinib] (partner 0.25 µM)
In short, it runs like this: (§1)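 Relative viability divides the nuclei count in treated wells by that in vehicle wells. Lung cancer cell lines were seeded in 1536-well plates, dosed by pin tool the next day, and fixed and stained after 5 days in one step with final 0.05% Triton X-100, 1% formaldehyde and 1 ug/ml Hoechst. Dosing was a single drug or a fixed anchor-drug dose plus five library-drug doses (not always all listed) in √10 steps, and values are medians of duplicate plates imaged at 4×.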

Compound in the experiment “QS11 + Linsitinib”: C1CC2=C(C1)C=C(C=C2)OC3=NC(=C4C(=N3)N(C=N4)CC5=CC=C(C=C5)C6=CC=CC=C6)N[C@@H](CC7=CC=CC=C7)CO [QS11] + C[C@]1(O)C[C@@H](c2nc(-c3ccc4ccc(-c5ccccc5)nc4c3)c3c(N)nccn32)C1 [Linsitinib] (partner 1 µM)
In short, it runs like this:
as §1

Compound in experiment [1]: C[As](C)SC[C@H](NC(=O)CC[C@H](N)C(=O)O)C(=O)NCC(=O)O [Darinaparsin] + C[C@]1(O)C[C@@H](c2nc(-c3ccc4ccc(-c5ccccc5)nc4c3)c3c(N)nccn32)C1 [Linsitinib] (partner 1 µM)
An outline of the steps:
as §1

Compound in experiment [2]: C[As](C)SC[C@H](NC(=O)CC[C@H](N)C(=O)O)C(=O)NCC(=O)O [Darinaparsin] + Cc1cc(Nc2cc(N3CCN(C)CC3)nc(Sc3ccc(NC(=O)C4CC4)cc3)n2)n[nH]1 [Tozasertib] (partner 0.1 µM)
In short, it runs like this: as §1

As for COR-L 105, the relative viability turned out to be 1.08 with QS11 + Foretinib (first compound 0.08 µM); 1.25 in the experiment with QS11 + Foretinib (first compound 0.253 µM); 0.924 in the experiment with QS11 + Foretinib (first compound 0.8 µM); 0.991 in the experiment with QS11 + Foretinib (first compound 2.53 µM); 0.992 with QS11 + Foretinib (first compound 8 µM); 0.964 with QS11 + Linsitinib (first compound 0.08 µM). In addition, the relative viability was 0.706 with QS11 + Linsitinib (first compound 0.253 µM); 0.929 in the experiment with QS11 + Linsitinib (first compound 0.8 µM); 0.732 with QS11 + Linsitinib (first compound 2.53 µM); 0.883 in the experiment with QS11 + Linsitinib (first compound 8 µM); 0.992 in experiment [1] (first compound 0.08 µM); 0.844 in experiment [1] (first compound 0.8 µM). The relative viability amounted to 0.978 in experiment [1] (first compound 8 µM); 0.316 in experiment [2] (first compound 0.08 µM); 0.369 in experiment [2] (first compound 0.8 µM); 0.315 in experiment [2] (first compound 2.53 µM); 0.32 in experiment [2] (first compound 8 µM).

On to Calu-6, for which the relative viability is 1.04 in the experiment with QS11 + Foretinib (first compound 0.08 µM); 0.93 in the experiment with QS11 + Foretinib (first compound 0.253 µM); 0.897 with QS11 + Foretinib (first compound 0.8 µM); 0.953 in the experiment with QS11 + Foretinib (first compound 2.53 µM); 0.998 with QS11 + Foretinib (first compound 8 µM); 0.971 with QS11 + Linsitinib (first compound 0.08 µM). In addition, the relative viability with QS11 + Linsitinib (first compound 0.253 µM) was determined as 0.936; in the experiment with QS11 + Linsitinib (first compound 0.8 µM), 0.762; with QS11 + Linsitinib (first compound 2.53 µM), 0.921; with QS11 + Linsitinib (first compound 8 µM) it was 1.21; in experiment [1] (first compound 0.08 µM) it was 1.06; in experiment [1] (first compound 0.8 µM), 1.06. Also, the relative viability in experiment [1] (first compound 2.53 µM) came to 0.815; in experiment [1] (first compound 8 µM) it was 1.05.

In the case of ChaGo-K-1, the relative viability stood at 0.816 with QS11 + Foretinib (first compound 0.08 µM); 0.967 with QS11 + Foretinib (first compound 0.253 µM); 0.971 in the experiment with QS11 + Foretinib (first compound 0.8 µM); 0.99 with QS11 + Foretinib (first compound 2.53 µM); 0.895 with QS11 + Foretinib (first compound 8 µM); 0.266 in experiment [2] (first compound 0.08 µM). The relative viability in experiment [2] (first compound 0.8 µM) worked out at 0.206; in experiment [2] (first compound 2.53 µM), 0.242; in experiment [2] (first compound 8 µM) it was 0.232.

With EBC-1, the relative viability with QS11 + Foretinib (first compound 0.08 µM) was found to be 0.0939; in the experiment with QS11 + Foretinib (first compound 0.253 µM), 0.0918; with QS11 + Foretinib (first compound 0.8 µM), 0.115; with QS11 + Foretinib (first compound 2.53 µM) it was 0.11; in the experiment with QS11 + Foretinib (first compound 8 µM) it was 0.144; with QS11 + Linsitinib (first compound 0.08 µM) it was 0.966. Also, the relative viability with QS11 + Linsitinib (first compound 0.253 µM) is 0.86; with QS11 + Linsitinib (first compound 0.8 µM), 0.696; with QS11 + Linsitinib (first compound 2.53 µM), 0.75; in the experiment with QS11 + Linsitinib (first compound 8 µM), 1.05; in experiment [1] (first compound 0.08 µM), 1.12; in experiment [1] (first compound 0.8 µM), 0.942. Besides, the relative viability is 0.864 in experiment [1] (first compound 2.53 µM) and 1.15 in experiment [1] (first compound 8 µM).

EKVX: the relative viability with QS11 + Foretinib (first compound 0.08 µM) is 0.732; with QS11 + Foretinib (first compound 0.253 µM), 0.764; in the experiment with QS11 + Foretinib (first compound 2.53 µM), 0.848; with QS11 + Foretinib (first compound 8 µM), 1.23; with QS11 + Linsitinib (first compound 0.08 µM), 1.04; with QS11 + Linsitinib (first compound 0.253 µM), 0.995. Also, the relative viability in the experiment with QS11 + Linsitinib (first compound 2.53 µM) amounted to 1.02; in the experiment with QS11 + Linsitinib (first compound 8 µM), 0.982; in experiment [1] (first compound 0.08 µM) it was 1.33; in experiment [1] (first compound 0.8 µM), 0.902; in experiment [1] (first compound 2.53 µM) it was 0.969; in experiment [1] (first compound 8 µM), 1.2. The relative viability is 0.431 in experiment [2] (first compound 0.08 µM), 0.448 in experiment [2] (first compound 0.8 µM), 0.32 in experiment [2] (first compound 2.53 µM) and 0.4 in experiment [2] (first compound 8 µM).

As to EMC-BAC-2, the relative viability with QS11 + Foretinib (first compound 0.08 µM) was determined as 1.03; in the experiment with QS11 + Foretinib (first compound 0.253 µM), 1.02; in the experiment with QS11 + Foretinib (first compound 0.8 µM), 0.857; with QS11 + Foretinib (first compound 2.53 µM), 0.652; with QS11 + Foretinib (first compound 8 µM), 0.622; with QS11 + Linsitinib (first compound 0.08 µM) it was 0.825. In addition, the relative viability is 0.826 with QS11 + Linsitinib (first compound 0.253 µM); 0.728 with QS11 + Linsitinib (first compound 0.8 µM); 0.815 with QS11 + Linsitinib (first compound 2.53 µM); 0.73 in the experiment with QS11 + Linsitinib (first compound 8 µM); 0.862 in experiment [1] (first compound 0.08 µM); 0.758 in experiment [1] (first compound 0.8 µM). The relative viability in experiment [1] (first compound 2.53 µM) stood at 0.773; in experiment [1] (first compound 8 µM), 0.965; in experiment [2] (first compound 0.08 µM) it was 0.251; in experiment [2] (first compound 0.8 µM), 0.28; in experiment [2] (first compound 2.53 µM) it was 0.299; in experiment [2] (first compound 8 µM) it was 0.277.

Take EPLC-272H: the relative viability with QS11 + Foretinib (first compound 0.253 µM) amounted to 0.817; in the experiment with QS11 + Foretinib (first compound 0.8 µM), 0.64; in the experiment with QS11 + Foretinib (first compound 2.53 µM) it was 0.677; with QS11 + Foretinib (first compound 8 µM) it was 0.692; with QS11 + Linsitinib (first compound 0.08 µM), 1.16; in the experiment with QS11 + Linsitinib (first compound 0.253 µM), 1.47. Further, the relative viability with QS11 + Linsitinib (first compound 0.8 µM) is 1.12; in the experiment with QS11 + Linsitinib (first compound 2.53 µM), 1.09; in the experiment with QS11 + Linsitinib (first compound 8 µM) it was 1.23; in experiment [1] (first compound 0.08 µM), 1.2; in experiment [1] (first compound 0.8 µM), 1.31; in experiment [1] (first compound 2.53 µM) it was 0.956. In addition, the relative viability was determined as 1.17 in experiment [1] (first compound 8 µM), 0.308 in experiment [2] (first compound 0.8 µM), 0.229 in experiment [2] (first compound 2.53 µM) and 0.277 in experiment [2] (first compound 8 µM).

For the cell line H3255, the relative viability with QS11 + Foretinib (first compound 0.08 µM) is 0.787; with QS11 + Foretinib (first compound 0.253 µM), 0.864; with QS11 + Foretinib (first compound 2.53 µM), 0.927; with QS11 + Foretinib (first compound 8 µM), 0.93; with QS11 + Linsitinib (first compound 0.08 µM), 0.954; in the experiment with QS11 + Linsitinib (first compound 0.253 µM) it was 0.97. In addition, the relative viability in the experiment with QS11 + Linsitinib (first compound 2.53 µM) was determined as 0.973; with QS11 + Linsitinib (first compound 8 µM), 1.03; in experiment [1] (first compound 0.08 µM), 0.995; in experiment [1] (first compound 0.8 µM), 0.96; in experiment [1] (first compound 2.53 µM) it was 0.86; in experiment [1] (first compound 8 µM), 1.16. Besides, the relative viability in experiment [2] (first compound 0.08 µM) came out at 0.605; in experiment [2] (first compound 0.8 µM), 0.585; in experiment [2] (first compound 2.53 µM), 0.63; in experiment [2] (first compound 8 µM), 0.598.

For HARA, the relative viability with QS11 + Foretinib (first compound 0.08 µM) worked out at 0.841; with QS11 + Foretinib (first compound 0.253 µM) it was 0.933; with QS11 + Foretinib (first compound 2.53 µM), 0.944; with QS11 + Foretinib (first compound 8 µM), 1.2; with QS11 + Linsitinib (first compound 0.08 µM) it was 0.965; with QS11 + Linsitinib (first compound 0.253 µM), 1.02. In addition, the relative viability came out at 0.912 with QS11 + Linsitinib (first compound 2.53 µM); 1.19 with QS11 + Linsitinib (first compound 8 µM); 1.38 in experiment [1] (first compound 0.08 µM); 0.852 in experiment [1] (first compound 0.8 µM); 0.75 in experiment [1] (first compound 2.53 µM); 1.19 in experiment [1] (first compound 8 µM). Also, the relative viability turned out to be 0.153 in experiment [2] (first compound 0.08 µM), 0.103 in experiment [2] (first compound 0.8 µM), 0.125 in experiment [2] (first compound 2.53 µM) and 0.0804 in experiment [2] (first compound 8 µM).

The record behind these values is the supplement of paper PMC10307832.
